What all share (experiment): NCI anticancer screen, dose series, 48 h
The subject of experiment [1] is HOP-92 NSCLC.
The test system of experiment [2] is SW-620 colon.
The test system of experiment [3] is OVCAR-3 ovarian.
The test system of experiment [4] is OVCAR-4 ovarian.
Experiment [5] has as its system SF-268 CNS.
The test system of experiment [6] is DU-145 prostate.
Experiment [7] relates to SK-OV-3 ovarian.
For experiment [8], the system named is SF-295 CNS.
Experiment [9] deals with SK-MEL-2 melanoma.
Experiment [10] relates to HCC-2998 colon.

We go through 13 molecules from PubChem BioAssay (NCI).

Structures are written as SMILES.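 Five compound concentrations were applied to cells in 96-well plates for 48 hours; endpoints were derived by simple linear interpolation of the resulting dose-response curve. GI50 marks 50% less growth. TGI denotes the concentration required for complete inhibition of growth.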

Regarding `CN1CCCC1c1cccnc1.O=C(O)c1ccccc1O.O=C([O-])c1ccccc1[OH2+].O=C([O-])c1ccccc1[OH2+].[Mn+2]` (centres undefined), the GI50 in experiment [1] is over 100 µM; in [2], 64.3 µM; in [3], 21.3 µM; in experiment [4], over 100 µM; in experiment [5], 31.6 µM; in experiment [6], over 100 µM. The GI50 in [7] was over 100 µM; in [8] it was over 100 µM; in experiment [9], 54.3 µM. Further, the TGI is over 100 µM in experiment [1]; over 100 µM in experiment [2]; 70.5 µM in experiment [3]; over 100 µM in [4]; over 100 µM in [5]; over 100 µM in experiment [6]. Also, the TGI in [7], in experiment [8] and in experiment [9] was over 100 µM in each case.
On to `O=C(c1ccco1)c1c(C(F)(F)F)n([O-])c2cc(F)c(F)cc2[n+]1=O`, for which the GI50 in experiment [1] is 1.49 µM; in experiment [3], 0.193 µM; in experiment [5] it was 0.29 µM; in experiment [6] it was 0.238 µM; in experiment [7], 0.346 µM; in [8], 0.737 µM. Moreover, the GI50 in experiment [9] is 2.93 µM. The TGI came to 3.21 µM in experiment [1]; 0.0132 µM in [2]; 1.35 µM in [3]; 1.09 µM in experiment [5]; 0.0145 µM in [10]; 0.727 µM in experiment [6]. The results for the TGI in experiment [7], in experiment [8] and in experiment [9] were 1.11 µM, 2.17 µM and 12.8 µM, respectively.
In the case of `O=c1[nH]c(=S)[nH]c(-c2ccccc2)c1Cc1c(O)ccc2ccccc12`, the TGI in [1], in experiment [2], in experiment [3], in experiment [4], in experiment [5] and in [6] was over 100 µM throughout. The TGI in experiment [7] was over 100 µM; in experiment [8], over 100 µM; in [9] it was 48.6 µM.
As to `Nc1nc(C(=O)O)c(N=Nc2ccccc2)c(=O)[nH]1`, the TGI in experiment [1], in experiment [2], in experiment [3], in [4], in experiment [5] and in experiment [6] was over 100 µM each time. Besides, the TGI in experiment [7], in experiment [8] and in experiment [9] was over 100 µM throughout.
For the molecule `c1ccc2c(CNCCN3CCNCC3)c3ccccc3c(CNCCN3CCNCC3)c2c1`, the GI50 in [2] was 16.4 µM; in experiment [3], 18.9 µM; in experiment [4] it was 43.8 µM; in [5], 12.4 µM; in experiment [10] it was 12.7 µM; in [6] it was 7.26 µM. In addition, the GI50 in [7] is 24.5 µM; in experiment [8] it was 17.8 µM; in [9], 29 µM. For the same molecule, the TGI in [2] was 49.3 µM; in experiment [3], 51.7 µM; in experiment [4], over 100 µM; in experiment [5] it was 33.3 µM; in experiment [10], 29.4 µM; in [6] it was 33.2 µM. Moreover, the TGI was 79.8 µM in experiment [7], 43.5 µM in experiment [8] and over 100 µM in [9].
`COc1cc(/C=C/C(=O)O[C@H]2[C@H](O[C@@H]3O[C@@H](C)[C@H](O)[C@@H](O)[C@H]3O)[C@@H](O)[C@H](OCCc3ccc(O)c(O)c3)O[C@@H]2COC2OCC(O)(CO)C2O)ccc1O` (some centres undefined): the GI50 in [1] was 0.402 µM; in experiment [2], 20.1 µM; in experiment [3], over 100 µM; in experiment [4] it was over 100 µM; in [5], 49.3 µM; in experiment [6] it was over 100 µM. In addition, the GI50 in experiment [7], in [8] and in experiment [9] was over 100 µM each time. Besides, the TGI is over 100 µM in experiment [1]; 46 µM in experiment [2]; over 100 µM in [3]; over 100 µM in [4]; over 100 µM in experiment [5]; over 100 µM in experiment [6]. The TGI in experiment [7], in [8] and in experiment [9] was over 100 µM throughout.
With `N#Cc1cc2c(cc1Cl)Sc1nnc(Nc3cccc4ccccc34)n1S2(=O)=O`, the GI50 in experiment [1] is 14.7 µM; in [2] it was 3.61 µM; in experiment [3], 1.77 µM; in experiment [4], 6.48 µM; in experiment [5], 2.85 µM; in [6] it was 3.66 µM. Besides, the results for the GI50 in experiment [7], in [8] and in experiment [9] were 17.4 µM, 16.8 µM and 17.3 µM, respectively. For the same molecule, the TGI in experiment [1] is 30.1 µM; in experiment [2], 12.3 µM; in [3], 3.47 µM; in experiment [4], 26.8 µM; in experiment [5] it was 10.1 µM; in [6], 12.9 µM. Also, the TGI was 35.1 µM in [7], 31.8 µM in [8] and over 100 µM in experiment [9].
As to `N#CC1C(N)=NNC12Nc1ccccc1S2` (centres undefined), the GI50 in experiment [1] was 34.7 µM; in experiment [2], 31.2 µM; in experiment [3] it was 10.3 µM; in experiment [5], 62.9 µM; in [6], 15.6 µM; in experiment [7] it was 25.9 µM. Further, the values for the GI50 in [8] and in experiment [9] were 17.2 µM and 6.28 µM, respectively. In addition, the TGI was over 100 µM in experiment [1]; over 100 µM in [2]; 43.9 µM in experiment [3]; over 100 µM in experiment [5]; 55.3 µM in experiment [6]; over 100 µM in [7]. Moreover, the TGI worked out at 64.2 µM in experiment [8] and 43.9 µM in experiment [9].
On to `O=[N+]([O-])c1cc(Cc2cc([N+](=O)[O-])c3cccnc3c2O)c(O)c2ncccc12`, for which the TGI is 37.1 µM in experiment [1]; over 67.9 µM in experiment [2]; 6.71 µM in experiment [3]; over 74.1 µM in experiment [4]; over 43.8 µM in [5]; 54 µM in experiment [6]. Also, the figures for the TGI in experiment [7], in experiment [8] and in [9] were 37.5 µM, 37.2 µM and 29.6 µM, respectively.
Consider `COc1ccc(C2CC(c3ccc(N(C)C)cc3)=NN2c2ccc(S(N)(=O)=O)cc2)cc1` (centres undefined), for which the GI50 was 4.06 µM in experiment [2]; 3.02 µM in experiment [3]; 3.19 µM in [4]; 5.76 µM in experiment [5]; 2.99 µM in [10]; 4.84 µM in experiment [6]. Further, the GI50 is 4.38 µM in experiment [7], 3.42 µM in [8] and 4 µM in experiment [9]. For the same molecule, the TGI in experiment [2] was over 100 µM; in [3], 8.18 µM; in experiment [4], over 100 µM; in experiment [5], over 100 µM; in [10], 12.4 µM; in experiment [6] it was over 100 µM. Also, the TGI is over 100 µM in [7], over 100 µM in [8] and 14.3 µM in [9].
As to `C=CC(=O)N[C@@H](/C=C/C(=O)OCC)Cc1ccc(-c2cc(Cl)cc(Cl)c2)cc1`, the GI50 in experiment [2] was 17 µM; in [3], 7.27 µM; in experiment [4] it was 5.23 µM; in experiment [5], 16 µM; in experiment [10] it was 19.9 µM; in [6], 12.9 µM. In addition, the values for the GI50 in experiment [7], in [8] and in experiment [9] were 19.4 µM, 13.5 µM and 16.3 µM, respectively. Besides, the TGI in experiment [2] is 83.2 µM; in [3], 53.1 µM; in experiment [4], 74.4 µM; in [5], over 100 µM; in [10], 57.6 µM; in experiment [6], 64.2 µM. Moreover, the values for the TGI in experiment [7], in [8] and in experiment [9] were 63.1 µM, 83.5 µM and 38.3 µM, respectively.
For the molecule `COc1ccc(-c2c3c(N)c4c(nc3nc3c2c(C)nn3-c2ccccc2)CCCC4)cc1`, the GI50 is 3.05 µM in [2]; 4.17 µM in experiment [3]; 3.22 µM in experiment [4]; 5.33 µM in experiment [5]; 3.51 µM in [10]; 4.72 µM in experiment [6]. The figures for the GI50 in experiment [7], in experiment [8] and in experiment [9] were 12.1 µM, 10.1 µM and 2.63 µM, respectively. The TGI in [2] amounted to 11.8 µM; in experiment [3], 15.3 µM; in experiment [4], 16.4 µM; in [5], 19.4 µM; in experiment [10], 12.7 µM; in experiment [6] it was 16.4 µM. The TGI was determined as 24.6 µM in experiment [7], 23.3 µM in experiment [8] and 5.95 µM in [9].
Turning to `Cc1cc2c(c(=O)o1)C1=S(SC(c3ccccc3)=C1)S2` (centres undefined), the TGI in experiment [1] is 83 µM; in experiment [2] it was over 100 µM; in [3], 75.2 µM; in [4], over 100 µM; in experiment [5], over 100 µM; in experiment [6] it was over 100 µM. Also, the TGI in experiment [7] is 52.6 µM; in experiment [8], 88 µM; in experiment [9], over 100 µM.
